The source of these data is PubChem BioAssay (NCI).

Molecules are shown by their SMILES.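 How tested: cells in 96-well plates exposed to compound for 48 hours at five concentrations. TGI marks complete inhibition of growth.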

Test systems include A498 renal; A549 NSCLC; CCRF-CEM leukemia; HCT-116 colon; HOP-62 NSCLC; MALME-3M melanoma; MOLT-4 leukemia; OVCAR-3 ovarian; OVCAR-4 ovarian; OVCAR-5 ovarian; RPMI-8226 leukemia; SF-268 CNS; SK-MEL-5 melanoma; SK-OV-3 ovarian; SW-620 colon; TK-10 renal; UACC-257 melanoma; HCC-2998 colon; SNB-75 CNS.
Holding throughout (assay): DTP human tumour cell line panel, 48 h

As usually defined, the TGI is the concentration giving total growth inhibition. The low end stands for greater sensitivity of the cells, the high end for lower sensitivity of the cells.

For `CC1=CCC2(C#N)CCC1C2=O` (stereo not drawn), the total growth inhibition concentration (TGI) in the assay with A498 renal, in the assay on A549 NSCLC, in the assay with CCRF-CEM leukemia, with HCT-116 colon, in the assay with HOP-62 NSCLC and with MALME-3M melanoma was greater than 100 µM in each case. The concentration for total growth inhibition (TGI) in the assay with MOLT-4 leukemia, in the assay on OVCAR-3 ovarian, in the assay with OVCAR-4 ovarian, in the assay on OVCAR-5 ovarian, with RPMI-8226 leukemia and with SF-268 CNS was greater than 100 µM each time. Moreover, the concentration for total growth inhibition (TGI) with SK-MEL-5 melanoma, with SK-OV-3 ovarian, in the assay on SW-620 colon, with TK-10 renal and in the assay with UACC-257 melanoma was greater than 100 µM each time.
Take `CC(C)NC(C)Cc1ccccc1` (stereo not drawn): the TGI in the assay on A498 renal, in the assay on A549 NSCLC, in the assay with CCRF-CEM leukemia, with HCC-2998 colon, in the assay with HCT-116 colon and in the assay on HOP-62 NSCLC was greater than 100 µM each time. Moreover, the TGI in the assay with MALME-3M melanoma, in the assay with OVCAR-3 ovarian, in the assay on OVCAR-4 ovarian, in the assay on OVCAR-5 ovarian, in the assay with RPMI-8226 leukemia and in the assay on SF-268 CNS was greater than 100 µM throughout. For the same compound, the concentration for total growth inhibition (TGI) in the assay with SK-MEL-5 melanoma, in the assay on SK-OV-3 ovarian, in the assay on SNB-75 CNS, with SW-620 colon, in the assay with TK-10 renal and with UACC-257 melanoma was greater than 100 µM in each case.
For `CC(O[Si](C)(C)C(C)(C)C)[C@H](NC(=O)OCC(Cl)(Cl)Cl)C(=O)O` (stereo partly drawn), the concentration for total growth inhibition (TGI) in the assay on A498 renal, with A549 NSCLC, with CCRF-CEM leukemia, with HCC-2998 colon, in the assay on HCT-116 colon and in the assay on HOP-62 NSCLC was greater than 100 µM in each case. The TGI with MALME-3M melanoma, in the assay with MOLT-4 leukemia, in the assay with OVCAR-3 ovarian, in the assay on OVCAR-4 ovarian, with OVCAR-5 ovarian and in the assay with RPMI-8226 leukemia was greater than 100 µM throughout. Further, the TGI in the assay on SF-268 CNS, in the assay on SK-MEL-5 melanoma, in the assay with SK-OV-3 ovarian, with SW-620 colon, in the assay with TK-10 renal and with UACC-257 melanoma was greater than 100 µM each time.
Regarding `CC(C)(C)C1CCC2c3c([nH]c4ccccc34)C3C(=O)N(c4ccc(Br)cc4)C(=O)C3C2C1` (stereo not drawn), the total growth inhibition concentration (TGI) came out at 52.3 µM in the assay with A498 renal; 47.5 µM with A549 NSCLC; 39.8 µM in the assay on CCRF-CEM leukemia; 11.9 µM in the assay with HCC-2998 colon; 91.9 µM with HCT-116 colon; 39.5 µM in the assay with HOP-62 NSCLC. For the same compound, the total growth inhibition concentration (TGI) with MALME-3M melanoma was greater than 100 µM; with MOLT-4 leukemia, 26.2 µM; in the assay on OVCAR-4 ovarian, 41.5 µM; in the assay on OVCAR-5 ovarian, 56.5 µM; in the assay with RPMI-8226 leukemia it was 38.6 µM; with SF-268 CNS, 49.8 µM. Also, the concentration for total growth inhibition (TGI) came to 62.2 µM with SK-MEL-5 melanoma; 54.8 µM in the assay with SNB-75 CNS; 49.4 µM in the assay with SW-620 colon; 42 µM with TK-10 renal; 50.2 µM in the assay with UACC-257 melanoma.
In the case of `CCN(CC)CC(C)(C)C(=O)/C=C/c1ccc(C)cc1`, the total growth inhibition concentration (TGI) in the assay with A498 renal was 15.5 µM; with A549 NSCLC, 42.7 µM; in the assay with CCRF-CEM leukemia it was 19.2 µM; with HCC-2998 colon, 21.6 µM; in the assay with HCT-116 colon it was 27.4 µM; in the assay with HOP-62 NSCLC, 32.9 µM. Moreover, the TGI with MALME-3M melanoma is 21.7 µM; with MOLT-4 leukemia it was 39.9 µM; in the assay with OVCAR-3 ovarian it was 21.7 µM; in the assay with OVCAR-4 ovarian, 24.4 µM; in the assay with OVCAR-5 ovarian, 27.6 µM; in the assay on SF-268 CNS it was 22.1 µM. In addition, the TGI with SK-MEL-5 melanoma is 29.1 µM; in the assay with SK-OV-3 ovarian it was 60.6 µM; in the assay on SNB-75 CNS it was 23.5 µM; with SW-620 colon it was 15.7 µM; in the assay with TK-10 renal, 27.9 µM.
Regarding `CC[n+]1[b-](C(C)(C)C)n(/N=C(\C)C(C)(C)C)[b-](C(C)(C)C)[n+]1CC`, the concentration for total growth inhibition (TGI) with A549 NSCLC, in the assay on CCRF-CEM leukemia, in the assay with HCC-2998 colon, in the assay on HCT-116 colon, with HOP-62 NSCLC and in the assay with MALME-3M melanoma was greater than 100 µM each time. Also, the concentration for total growth inhibition (TGI) with MOLT-4 leukemia, in the assay with OVCAR-3 ovarian, in the assay on OVCAR-4 ovarian, in the assay on OVCAR-5 ovarian, with SF-268 CNS and in the assay on SK-MEL-5 melanoma was greater than 100 µM each time. Moreover, the TGI in the assay on SNB-75 CNS, with SW-620 colon, in the assay with TK-10 renal and in the assay with UACC-257 melanoma was greater than 100 µM throughout.
Consider `C/C=C/C=C/[C@H]1Cc2cc(O)cc(O)c2O1`, for which the TGI in the assay on A498 renal, with A549 NSCLC, with CCRF-CEM leukemia, in the assay with HCT-116 colon, with HOP-62 NSCLC and in the assay on MALME-3M melanoma was greater than 100 µM in each case. The TGI in the assay on MOLT-4 leukemia, in the assay on OVCAR-3 ovarian, with OVCAR-4 ovarian, in the assay with OVCAR-5 ovarian, in the assay on SF-268 CNS and in the assay with SK-MEL-5 melanoma was greater than 100 µM throughout. The total growth inhibition concentration (TGI) in the assay with SK-OV-3 ovarian, in the assay on SNB-75 CNS, in the assay with SW-620 colon, in the assay with TK-10 renal and with UACC-257 melanoma was greater than 100 µM in each case.
As to `CC1=NN(C(=O)c2ccc(Cl)cc2)C(=O)/C1=C/c1cccc(O)c1`, the TGI in the assay on A498 renal, in the assay with A549 NSCLC, with CCRF-CEM leukemia, in the assay with HCC-2998 colon, in the assay with HCT-116 colon and in the assay with HOP-62 NSCLC was greater than 100 µM each time. For the same compound, the TGI with MALME-3M melanoma, with MOLT-4 leukemia, in the assay on OVCAR-3 ovarian, in the assay on OVCAR-4 ovarian, in the assay with OVCAR-5 ovarian and in the assay with RPMI-8226 leukemia was greater than 100 µM throughout. Moreover, the TGI in the assay with SF-268 CNS, in the assay with SK-MEL-5 melanoma, with SK-OV-3 ovarian, with SW-620 colon, in the assay with TK-10 renal and in the assay on UACC-257 melanoma was greater than 100 µM in each case.
